Laboratory results from PMC5351590, “Cucurbitacin B exerts anti-cancer activities in human multiple myeloma cells in vitro and in vivo by modulating multiple cellular pathways” (Oncotarget, 2016).
pIC50: −log10 of the molar value.

Biological target: T1, Aurora A (Homo sapiens, UniProt O14965)
T1 construct: gene AURKA
T1 sequence (O14965 1-403): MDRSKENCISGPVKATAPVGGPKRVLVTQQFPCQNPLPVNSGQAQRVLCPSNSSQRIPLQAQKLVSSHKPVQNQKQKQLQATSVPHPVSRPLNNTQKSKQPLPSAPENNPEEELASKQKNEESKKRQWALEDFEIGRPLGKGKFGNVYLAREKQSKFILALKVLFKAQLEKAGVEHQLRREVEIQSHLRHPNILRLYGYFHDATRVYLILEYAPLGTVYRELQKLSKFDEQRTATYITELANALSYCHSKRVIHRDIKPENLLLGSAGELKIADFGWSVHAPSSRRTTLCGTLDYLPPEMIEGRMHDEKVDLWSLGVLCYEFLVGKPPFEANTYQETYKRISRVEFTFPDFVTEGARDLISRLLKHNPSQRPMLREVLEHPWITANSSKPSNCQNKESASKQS
Assay: radiometric […]-ATP kinase assay with purified kinase (Dundee panel; dose-response)
Type: biochemical

`CC(=O)OC(C)(C)/C=C/C(=O)[C@](C)(O)[C@H]1[C@H](O)C[C@@]2(C)[C@@H]3CC=C4[C@@H](C[C@H](O)C(=O)C4(C)C)[C@]3(C)C(=O)C[C@]12C` [CuB, Cucurbitacin B] gave a pIC50 of 7.00.
